Results as given in ChEMBL document CHEMBL1156829 (Proc Natl Acad Sci U S A, 2008).

What was measured:
Plasmodium falciparum [1] = test: NOVARTIS: Inhibition of Plasmodium falciparum W2 (drug-resistant) proliferation in erythrocyte-based infection assay; assay type: functional, organism-based; settings: Plasmodium falciparum, W2; read-out: EC50
Plasmodium falciparum [2] = test: NOVARTIS: Inhibition of Plasmodium falciparum 3D7 (drug-susceptible) proliferation in erythrocyte-based infection assay; assay type: functional, organism-based; settings: Plasmodium falciparum, 3D7
[3] = NOVARTIS: Cytotoxicity against human hepatocellular carcinoma cell line (Huh7); assay type: toxicity, cell-based, Huh-7; settings: Huh7 cells (hepatocellular carcinoma cell line)

Row | Structure (SMILES) | EC50 (Plasmodium falciparum [1]) [µM] | EC50 (Plasmodium falciparum [2]) [µM] | CC50 [3] [µM]
1 | COc1ccc(OC)c(CN2CCC3(CC2)CC3C(=O)NCCc2ccccc2OC)c1 (stereo not given) | 1.19 | > 3.17 | > 100
2 | O=C(NCCCCCCCCCCNC(=O)Nc1ccc(C2=NCCCN2)cc1)Nc1ccc(C2=NCCCN2)cc1 | 0.0693 | 0.0542 | > 10
3 | CCOC(=O)c1c(NC(C)=O)sc2c1CCN(C(C)C)C2 | 3.41 | 1.56 | > 100
4 | O=C(c1cc2n(n1)C(C(F)(F)F)CC(c1ccc3c(c1)OCO3)N2)N1CCN(C(c2ccccc2)c2ccccc2)CC1 (stereo not given) | 1.6 | 5.26 | > 100
5 | O=C1Nc2ccccc2C1=NN=Cc1ccc(-c2ccccc2[N+](=O)[O-])o1 | 6.75 | > 12.5 | > 100
6 | O=C(c1cnn(-c2ccccc2)c1C(F)(F)F)N1CCN(c2ccnc3cc(Cl)ccc23)CC1 | 0.0882 | 0.349 | > 100
7 | COc1ccc(-c2cnc3ccc(NC4CCOCC4)nn23)cc1OC | > 1.62 | > 0.933 | > 10
8 | Cc1nn(C(=O)NS(=O)(=O)c2ccccc2Cl)c(C)c1C | > 0.496 | > 0.81 | > 10
9 | Nc1nc(Cl)nc2ccccc12 | 0.737 | 0.516 | > 10
10 | CCOC(=O)c1cnc2c(Cl)cccc2c1Nc1cccc(C(C)=O)c1 | 0.784 | 0.785 | > 100
11 | COc1cccc(CN2CCN(C(c3ccccc3)c3ccccc3)CC2)c1O | 0.0504 | 0.34 | 45.2
12 | CCN(CC)c1ccc(C=C(C#N)c2nc3ccccc3[nH]2)o1 | > 2.67 | 3.35 | 46.2
13 | CCn1c(SCC(=O)Nc2ccc(OC)cc2)nc2ccsc2c1=O | 0.475 | > 1.25 | > 11.7
14 | CCN1C(=O)c2ccccc2Sc2ccc(NC(=O)NCCCOC(C)C)cc21 | > 10 | > 10 | 32.1
15 | CC1CCCCN1CCCNc1ncc(C(=O)NCCc2ccccc2)c(NCC2CCCO2)n1 (stereo not given) | > 1.56 | 0.914 | > 10
16 | N#Cc1ccc(NC(=O)CCCC(=O)O)cc1 | < 0.0106 | 2.08 | > 10
17 | Cc1ccc(NC(C)c2nc3ccccc3c(=O)n2CCOC2CCCCO2)cc1C (stereo not given) | 1.03 | 0.799 | > 2.7
18 | COc1ccc(-n2nc3c(c2NC(=O)C=Cc2cc(OC)c(OC)c(OC)c2)CSC3)cc1 | 0.294 | 0.392 | > 100

Row | Structure (SMILES) | EC50 (Plasmodium falciparum [1]) [µM] | EC50 (Plasmodium falciparum [2]) [µM] | CC50 [3] [µM]
19 | Cc1ccc(C2Sc3ccccc3NC3=C2C(=O)c2ccccc23)cc1 (stereo not given) | 0.0464 | 0.249 | 68.6
20 | CCOC(=O)c1c(CSc2ccccc2)oc2cc(CN(C)C)c(O)c(Cl)c12 | 0.209 | 0.321 | 61.6
21 | CC(=O)NCCc1nc2ccccc2n1Cc1ccc(C(C)C)cc1 | 0.0981 | 0.764 | 48.7
22 | Oc1ccc(CN2CCCCC2)nc1-c1ccccc1 | 0.0866 | 0.241 | > 100
23 | CCc1nn(-c2ccccc2)c2nc(-c3cc(Br)ccc3O)c3cc(OC)c(OC)cc3c12 | 0.192 | 0.466 | > 100
24 | O=c1sc(=NCC(O)c2ccc(Cl)c(Cl)c2)[nH]c2ccccc12 (stereo not given) | 0.0731 | 0.757 | > 10
25 | Nc1ccc(Nc2ccc(N)cc2)cc1 | 0.711 | 0.319 | > 10
26 | COc1ccc(C2N=C(N)N=C(N)N2c2ccc(Cl)cc2)cc1OC (stereo not given) | > 1.25 | 0.326 | > 10
27 | CC(C)(C)c1ccc(C(=O)N2CCCn3cccc3C2c2ccc(C(C)(C)C)cc2)cc1 (stereo not given) | 1.29 | 1.56 | > 100
28 | CCN1CCN(c2cc(C)c3cc(NC(=O)c4ccc(OC)c([N+](=O)[O-])c4)ccc3n2)CC1 | 0.344 | 0.273 | 15.4
29 | O=C1C2C3c4ccccc4C(c4ccccc43)C2C(=O)N1CCO (stereo not given) | 3.7 | > 12.5 | > 100
30 | CC[n+]1c(C)cc2c([nH]c3ccccc32)c1C | 3 | 1.24 | > 100
31 | O=C1CC(c2cccc([N+](=O)[O-])c2)c2cc3c(cc2N1)OCO3 (stereo not given) | > 11.8 | > 10.2 | > 100
32 | Cc1cccc(NC(c2cccc(Cl)c2)c2ccc3cccnc3c2O)n1 (stereo not given) | 0.891 | 0.917 | > 62.4
33 | CCC(C)(C)c1ccc(OCCCC[n+]2cccc(C)c2C)c(C(C)(C)CC)c1 | 0.43 | 0.495 | 15.2
34 | CCOc1ccc2[nH]c3c(NCCCN(C)C)ncnc3c2c1 | 0.778 | 0.203 | 26.6
35 | CC(C)(C)CC(C)(C)c1ccc(OCC(=O)NN=C2C(=O)Nc3ccccc32)c([N+](=O)[O-])c1 | 0.927 | > 1 | > 10
